# Values of other authors, collected in patent US11198893B2, “Method for producing omega 3 and omega 6 unsaturated fatty acid oxides” (Bizen Chemical Co., Ltd., priority 2016, dated 2021).
SMILES,glucose tolerance and insulin resistance (obese mice),inflammatory cytokine expression (obese mice),glycometabolism (liver glucose synthesis),liver glucose synthesis (liver glucose synthesis)
CC/C=C\C[C@H](O)/C=C/C=C\C/C=C\C/C=C\C/C=C\CCC(=O)O [17S-HDHA],improve glucose tolerance and insulin resistance,suppresses inflammatory cytokine expression,,
CC/C=C\C[C@H](O)/C=C/C=C\C=C\[C@@H](O)C/C=C\C/C=C\CCC(=O)O [protectin DX],,,action to promote glycometabolism,action to suppress liver glucose synthesis
